Assay results reported in PubChem BioAssay AID1963844 (Molecular Pharmacology Branch, DTP, NCI, 2024).

System: 422866-222-R5-J1-PDC complex spheroid viability
Experiment: Anticancer human tumor 422866-222-R5-J1-PDC patient-derived pancreatic adenocarcinoma cell line growth inhibition [POLQ]
Settings: for IC50: curve of first compound; for viability, T/C: stronger effect = lower value
Outline: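 Complex spheroid viability model combining PDC tumour cells with endothelial (HUVEC) and MSC stromal cells. Novobiocin, ART-558 or RP6685 were tested singly and in combination with standard and investigational anticancer drugs. Each was titrated in half-log steps from near clinical Cmax, or from 10 microM where Cmax was unknown.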

[1] = second compound 0.0316 µM, first compound 0.0316 µM
[2] = second compound 0.0316 µM, first compound 0.1 µM
[3] = second compound 0.0316 µM, first compound 0.316 µM
[4] = second compound 0.0316 µM, first compound 1 µM
[5] = second compound 0.0316 µM, first compound 3.16 µM
[6] = second compound 0.0316 µM, first compound 10 µM
[7] = second compound 0.1 µM, first compound 0.0316 µM
[8] = second compound 0.1 µM, first compound 0.1 µM
[9] = second compound 0.1 µM, first compound 0.316 µM
[10] = second compound 0.1 µM, first compound 1 µM
[11] = second compound 0.1 µM, first compound 3.16 µM
[12] = second compound 0.1 µM, first compound 10 µM
[13] = second compound 0.316 µM, first compound 0.0316 µM
[14] = second compound 0.316 µM, first compound 0.1 µM
[15] = second compound 0.316 µM, first compound 0.316 µM
[16] = second compound 0.316 µM, first compound 1 µM
[17] = second compound 0.316 µM, first compound 3.16 µM
[18] = second compound 0.316 µM, first compound 10 µM
[19] = second compound 1 µM, first compound 0.0316 µM
[20] = second compound 1 µM, first compound 0.1 µM
[21] = second compound 1 µM, first compound 0.316 µM
[22] = second compound 1 µM, first compound 1 µM
[23] = second compound 1 µM, first compound 3.16 µM
[24] = second compound 1 µM, first compound 10 µM
[25] = second compound 3.16 µM, first compound 0.0316 µM
[26] = second compound 3.16 µM, first compound 0.1 µM
[27] = second compound 3.16 µM, first compound 0.316 µM
[28] = second compound 3.16 µM, first compound 1 µM
[29] = second compound 3.16 µM, first compound 3.16 µM
[30] = second compound 3.16 µM, first compound 10 µM
[31] = second compound 10 µM, first compound 0.0316 µM
[32] = second compound 10 µM, first compound 0.1 µM
[33] = second compound 10 µM, first compound 0.316 µM
[34] = second compound 10 µM, first compound 1 µM
[35] = second compound 10 µM, first compound 3.16 µM
[36] = second compound 10 µM, first compound 10 µM
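Further: spheroids exposed to compounds for one week before readout.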
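Wherever viability, T/C is given: percent of DMSO vehicle wells luminescence so 100% = untreated viability.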

With `C=CC(=O)N1CCN(c2nc(=O)n(-c3c(C)ccnc3C(C)C)c3nc(-c4c(O)cccc4F)c(F)cc23)C(C)C1` (stereo not drawn) + COC1C(OC(N)=O)C(O)C(Oc2ccc3c(O)c(NC(=O)c4ccc(O)c(CC=C(C)C)c4)c(=O)oc3c2C)OC1(C)C the IC50 (second compound 0.0316 µM) was under 31.6 nM, the IC50 (second compound 0.1 µM) was under 31.6 nM and the IC50 (second compound 0.316 µM) was under 31.6 nM. It also gave an IC50 (second compound 1 µM) of under 31.6 nM, an IC50 (second compound 3.16 µM) of under 31.6 nM and an IC50 (second compound 10 µM) of under 31.6 nM. The viability, T/C [1] was 33.4%, the viability, T/C [2] was 26.7% and the viability, T/C [3] was 29%. It also gave a viability, T/C [4] of 22.4%, a viability, T/C [5] of 28% and a viability, T/C [6] of 33%. For the same compound, the viability, T/C [7] was 32.8%, the viability, T/C [8] was 28.9% and the viability, T/C [9] was 23.3%. The viability, T/C [10] was 23.7%, the viability, T/C [11] was 23.2% and the viability, T/C [12] was 27.1%. The viability, T/C [13] was 29.9%, the viability, T/C [14] was 25.1% and the viability, T/C [15] was 24.3%. The viability, T/C [16] was 21%, the viability, T/C [17] was 24.4% and the viability, T/C [18] was 28.7%. The viability, T/C [19] was 34.4%, the viability, T/C [20] was 30.6% and the viability, T/C [21] was 28.4%. The viability, T/C [22] was 28.4%, the viability, T/C [23] was 20.8% and the viability, T/C [24] was 25.6%. For the same compound, the viability, T/C [25] was 31.3%, the viability, T/C [26] was 27.1% and the viability, T/C [27] was 28.3%. For the same compound, the viability, T/C [28] was 23.7%, the viability, T/C [29] was 28.2% and the viability, T/C [30] was 29.3%. For the same compound, the viability, T/C [31] was 32.2%, the viability, T/C [32] was 26.8% and the viability, T/C [33] was 30%. It also gave a viability, T/C [34] of 22.9%, a viability, T/C [35] of 25.4% and a viability, T/C [36] of 28.6%.

Work on `COc1cc(C2c3cc4c(cc3C(OC3OC5COC(C)OC5C(O)C3O)C3COC(=O)C23)OCO4)cc(OC)c1O` (stereo not drawn) + Nc1ccc(C#CCN(C(=O)Cc2ncc(C(F)(F)F)cc2C(F)(F)F)c2ccc(F)cc2)nn1 yielded an IC50 (second compound 0.0316 µM) of 779 nM, an IC50 (second compound 0.1 µM) of 906 nM and an IC50 (second compound 0.316 µM) of 555 nM. It also gave an IC50 (second compound 1 µM) of 640 nM, an IC50 (second compound 3.16 µM) of 367 nM and an IC50 (second compound 10 µM) of 534 nM. For the same compound, the viability, T/C [1] was 90.9%, the viability, T/C [2] was 97.1% and the viability, T/C [3] was 62.7%. It also gave a viability, T/C [4] of 49.6%, a viability, T/C [5] of 33.5% and a viability, T/C [6] of 30.6%. The viability, T/C [7] was 110%, the viability, T/C [8] was 90.1% and the viability, T/C [9] was 76.2%. The viability, T/C [10] was 46.4%, the viability, T/C [11] was 31.2% and the viability, T/C [12] was 28.8%. For the same compound, the viability, T/C [13] was 123%, the viability, T/C [14] was 92.1% and the viability, T/C [15] was 55.5%. The viability, T/C [16] was 47.1%, the viability, T/C [17] was 29.2% and the viability, T/C [18] was 36.9%. For the same compound, the viability, T/C [19] was 94.3%, the viability, T/C [20] was 100% and the viability, T/C [21] was 68.5%. The viability, T/C [22] was 40.6%, the viability, T/C [23] was 32.1% and the viability, T/C [24] was 35.5%. The viability, T/C [25] was 93.3%, the viability, T/C [26] was 81.4% and the viability, T/C [27] was 48.2%. For the same compound, the viability, T/C [28] was 47.1%, the viability, T/C [29] was 37.6% and the viability, T/C [30] was 31.6%. The viability, T/C [31] was 103%, the viability, T/C [32] was 88.9% and the viability, T/C [33] was 55.4%. It also gave a viability, T/C [34] of 43.6%, a viability, T/C [35] of 38.4% and a viability, T/C [36] of 31.6%.

`CC1COCCN1c1cc(C2(O)CC3CCC(C2)O3)c2cnn(-c3ccn[nH]3)c2n1` (stereo not drawn) + Cc1cccc(N(C)C(=O)C2C(O)CCN2c2nc(C)cc(C(F)(F)F)c2C#N)c1 was tested, and the IC50 (second compound 0.0316 µM) was over 10000 nM, the IC50 (second compound 0.1 µM) was over 10000 nM and the IC50 (second compound 0.316 µM) was over 10000 nM. For the same compound, the IC50 (second compound 1 µM) was over 10000 nM, the IC50 (second compound 3.16 µM) was 31.6 nM and the IC50 (second compound 10 µM) was over 10000 nM. It also gave a viability, T/C [1] of 87.5%, a viability, T/C [2] of 42.3% and a viability, T/C [3] of 44.2%. The viability, T/C [4] was 85.3%, the viability, T/C [5] was 70.9% and the viability, T/C [6] was 73.2%. For the same compound, the viability, T/C [7] was 75.1%, the viability, T/C [8] was 55.5% and the viability, T/C [9] was 52.2%. The viability, T/C [10] was 79.2%, the viability, T/C [11] was 68.8% and the viability, T/C [12] was 72.2%. For the same compound, the viability, T/C [13] was 72.5%, the viability, T/C [14] was 40.9% and the viability, T/C [15] was 52.5%. The viability, T/C [16] was 70.3%, the viability, T/C [17] was 80.7% and the viability, T/C [18] was 74.7%. The viability, T/C [19] was 77.8%, the viability, T/C [20] was 44.7% and the viability, T/C [21] was 51.3%. For the same compound, the viability, T/C [22] was 70.6%, the viability, T/C [23] was 71.3% and the viability, T/C [24] was 92.5%. It also gave a viability, T/C [25] of 74.8%, a viability, T/C [26] of 48.1% and a viability, T/C [27] of 41.1%. For the same compound, the viability, T/C [28] was 95.4%, the viability, T/C [29] was 78.2% and the viability, T/C [30] was 79%. For the same compound, the viability, T/C [31] was 76.2%, the viability, T/C [32] was 45.2% and the viability, T/C [33] was 54.3%. It also gave a viability, T/C [34] of 85.3%, a viability, T/C [35] of 82.4% and a viability, T/C [36] of 82.6%.

`C=CCn1c(=O)c2cnc(Nc3ccc(N4CCN(C)CC4)cc3)nc2n1-c1cccc(C(C)(C)O)n1` + Nc1ccc(C#CCN(C(=O)Cc2ncc(C(F)(F)F)cc2C(F)(F)F)c2ccc(F)cc2)nn1 gave an IC50 (second compound 0.0316 µM) of 290 nM, an IC50 (second compound 0.1 µM) of 270 nM and an IC50 (second compound 0.316 µM) of 252 nM. It also gave an IC50 (second compound 1 µM) of 311 nM, an IC50 (second compound 3.16 µM) of 251 nM and an IC50 (second compound 10 µM) of 257 nM. The viability, T/C (second compound 0.0316 µM, first compound 0.00316 µM) was 88%, the viability, T/C (second compound 0.0316 µM, first compound 0.01 µM) was 96.6% and the viability, T/C [1] was 92.1%. The viability, T/C [2] was 79.7%, the viability, T/C [3] was 47.8% and the viability, T/C [4] was 33.7%. It also gave a viability, T/C (second compound 0.1 µM, first compound 0.00316 µM) of 98%, a viability, T/C (second compound 0.1 µM, first compound 0.01 µM) of 102% and a viability, T/C [7] of 98.2%. The viability, T/C [8] was 80.8%, the viability, T/C [9] was 45.2% and the viability, T/C [10] was 32.8%. The viability, T/C (second compound 0.316 µM, first compound 0.00316 µM) was 97%, the viability, T/C (second compound 0.316 µM, first compound 0.01 µM) was 89.7% and the viability, T/C [13] was 99.7%. The viability, T/C [14] was 71.9%, the viability, T/C [15] was 46.5% and the viability, T/C [16] was 34.6%. It also gave a viability, T/C (second compound 1 µM, first compound 0.00316 µM) of 97.6%, a viability, T/C (second compound 1 µM, first compound 0.01 µM) of 91.4% and a viability, T/C [19] of 115%. It also gave a viability, T/C [20] of 76.2%, a viability, T/C [21] of 53.5% and a viability, T/C [22] of 34.3%. The viability, T/C (second compound 3.16 µM, first compound 0.00316 µM) was 78.1%, the viability, T/C (second compound 3.16 µM, first compound 0.01 µM) was 97.1% and the viability, T/C [25] was 128%. The viability, T/C [26] was 69.5%, the viability, T/C [27] was 53.6% and the viability, T/C [28] was 36.6%. The viability, T/C (second compound 10 µM, first compound 0.00316 µM) was 106%, the viability, T/C (second compound 10 µM, first compound 0.01 µM) was 104% and the viability, T/C [31] was 103%. The viability, T/C [32] was 78.7%, the viability, T/C [33] was 44% and the viability, T/C [34] was 35.7%.
